One series deals with MRP-1 (Homo sapiens, UniProt P33527). Put plainly: in vitro. The following applies: not told.
The subject of series [1] is NF-κB in NIH3T3/NF-κB-luc cell line. Put plainly: NF-κB luciferase reporter in NIH3T3/NF-κB-luc. Particulars: Mus musculus. The series is classed as cell-based. An excerpt: (b) TNF-α-induced activation of an NF-κB luciferase reporter in the mouse NIH3T3 cell line.
(§1) NF-κB is a transcription factor that plays a central role in the regulation of many immune and inflammatory responses. […] The NIH3T3/NF-κB-luc cell line maintains a chromosomal integration of a Firefly luciferase reporter construct regulated by eight copies of the NF-κB response element. The effects of these compounds can be quantified by measuring the value of the NF-κB IC50.
On the technique in general: A reporter such as luciferase makes a cellular process visible.

In series [2] the test system is TNF-α-induced NF-κB activation in A549/NF-κB-Luc cells. Put plainly: TNF-α-induced NF-κB luciferase reporter in A549/NF-κB-Luc. Particulars: Homo sapiens. The series is classed as cell-based.
Description: (b) TNF-α-induced activation of an NF-κB luciferase reporter in the human A549 cell line.
as §1

For series [3], the system named is rat GSTA2 ARE (Nrf2) in AREc32 reporter cell line. Put plainly: GSTA2-ARE luciferase reporter in AREc32. The following applies: 4-fold GSTA2-ARE induction.
Series [4] in a line: Distribution into mouse tissues after PO QD×3. It is filed as in vivo. Particulars: mice PO QD×3 25 mg/kg, 6 h after last dose, semi-quantitative. As to the method:
Semi-quantitative analysis of drug content was performed.

The subject of series [5] is LPS-induced NO (plasma NOx, Griess Reaction). As to the kind of experiment: Suppression of NO in vivo after LPS in CD-1 mice. The following applies: LPS 5 mg/kg 24 h later. On the set-up: species or system mouse. As to the method:
FIG. 51—Dose-dependent suppression of NO in vivo by 63415. CD-1 mice (n=6) were dosed with DMSO or […] by oral gavage. LPS (5 mg/kg) was administered 24 h later. Twenty-four hours after LPS administration, whole blood was collected for NO assay. NO inhibition was determined by Griess Reaction from reduced, de-proteinated plasma.

The subject of a further series is NQO1 activity. Put plainly: NQO1 activity induction in mouse liver, lung, and kidney after PO QD×3. The series is classed as in vivo. Particulars: mice PO QD×3 25 mg/kg, 6 h after last dose. As to the method:
FIG. 53—NQO1 activity induction in mouse liver, lung, and kidney by 63415. Mice were dosed PO QD×3 with 25 mg/kg. Tissues were collected 6 h after the last dose, and analysis of NQO1 activity was performed.

The test system of series [6] is human NQO1 ARE (Nrf2) in HuH-7 human hepatoma cells. Put plainly: NQO1-ARE luciferase reporter in HuH-7. Particulars: for Concentration required to increase transcription from the NQO1 ARE by 2-fold: HuH-7, 18 h. It is filed as cell-based. An excerpt: The first luciferase reporter tested was under the control of a single ARE derived from the promoter of the human NQO1 gene, which allows for quantitative assessment of the endogenous activity of the Nrf2 transcription factor in cultured mammalian cells. […] The NQO1-ARE-luciferase reporter plasmid was constructed by inserting the human NQO1-ARE ([NT] ID NO: 31) into the pLuc-MCS vector using HindIII/XhoI cloning sites (GenScript Corp., Piscataway, N.J.). […] Firefly and Renilla luciferase activity was assayed by Dual-Glo Luciferase Assay (cat # E2920, Promega), and the luminescence signal was measured on an L-Max II luminometer (Molecular Devices). Firefly luciferase activity was normalized to the Renilla activity, and fold induction over a vehicle control (DMSO) of normalized Firefly activity was calculated. […] Values represent the average of three independent experiments.

The nature of series [7]: Polymorph screen: crystallization and drying experiments (FT-Raman, PXRD, TG-FTIR, DSC). The series is classed as physicochemical. As to the method: A preformulation and polymorphism study was performed for compound 63415. […] A total of 30 crystallization experiments, including phase equilibrations, drying experiments and other techniques, were carried out. All obtained solids were characterized by FT-Raman spectroscopy. All new forms were characterized by PXRD and TG-FTIR, and optionally by DSC and DVS.
All obtained materials were characterized by FT-Raman spectroscopy; selected samples were also characterized by PXRD.
Suspension equilibration experiments were carried out in one solvent and eleven solvent mixtures (Table 13). Suspensions of ˜100 mg of PP415-P1 in 0.2-2.0 mL of the selected solvents were prepared and shaken for 4-15 days at 22-24° C. The solids were recovered and characterized by FT-Raman spectroscopy; most were characterized also by PXRD.
Hot solutions of PP415-P1 were prepared in one solvent and four solvent mixtures (Table 14). […] In two cases (-P22, -P23) no solid precipitated, even after storage at 4-5° C. for two days. Here, the solvent was evaporated under N2 flow at r.t. The solids were recovered and characterized by FT-Raman spectroscopy and for those with spectra different from the amorphous starting material, FT-Raman class 1, also by PXRD.
Clear solutions of PP415-P1 were prepared in three solvent mixtures (Table 15). The solvents were then slowly evaporated at r.t. under ambient conditions. However, in two of the three experiments (-P15 and -P17) white solid precipitated before evaporation began. The obtained solids were examined by FT-Raman spectroscopy and PXRD.
At least one sample of each class was dried under vacuum with the aim to desolvate the solvates and to obtain non-solvated crystalline forms of 63415 (Table 16). The dried materials were characterized further by FT-Raman, PXRD, and TG-FTIR.
Bruker RFS100 with OPUS 6.5 software; Nd:YAG 1064-nm excitation, Ge detector, 3500-100 cm^−1 range; typical measurement conditions: 100-300 mW nominal laser power, 64-128 scans, 2 cm^−1 resolution.
Stoe Stadi P; Mythen1K Detector; Cu—Kα radiation; standard measurement conditions: transmission; 40 kV and 40 mA tube power; curved Ge monochromator; 0.02°2θ step size, 12 s or 60 s step time, 1.5-50.5°2θ or 1.0-55°2θ scanning range; detector mode: step scan; 1°2θ or 6°2θ detector step; standard sample preparation: 10 to 20 mg sample was placed between two acetate foils; sample holder: Stoe transmission sample holder; the sample was rotated during the measurement.
Netzsch Thermo-Microbalance TG 209 with Bruker FT-IR Spectrometer Vector 22; aluminum crucible (with microhole), N2 atmosphere, 10 K/min heating rate, 25-250° C. or 25-350° C. range.
Perkin Elmer DSC 7; gold crucibles (closed or with microhole), sample filled in an N2 environment, 10 K/min heating rate, −50 to 250° C. or 350° C. range, at times quench cooling (at −200 K/min) to −50° C. between scans.

Series [8] can be described thus: Dynamic vapor sorption (hygroscopicity). It is filed as physicochemical. As to the method: Projekt Messtechnik Sorptions Prüfsystem SPS 11-100n or Surface Measurement Systems DVS-1. The sample was placed on an aluminum or platinum holder on top of a microbalance and allowed to equilibrate for 2 h at 50% r.h. before starting the pre-defined humidity program: • (1) 50→0% r.h. (5%/h); 5 h at 0% r.h. • (2) 0→95% r.h. (5%/h); 5 h at 95% r.h. • (3) 95→50% r.h. (5%/h); 2 h at 50% r.h.

The mark [9] stands for this setting: not viability normalized, read-out: NIH3T3/NF-κB IC50.
The mark [10] stands for this setting: viability normalized, read-out: NIH3T3/NF-κB IC50, normalized for viability.
[11] abbreviates: not viability normalized, read-out: NF-κB IC50, human A549 cell line (further experimentation).
[12] abbreviates: read-out: NF-κB IC50, human A549 cell line, viability normalized.

Like-named read-outs stand apart in the source and are kept apart here.

This is an account of results in patent US9701709B2 (REATA PHARMACEUTICALS, INC., priority 2012, dated 2017).

Chain of MRP-1 (P33527 whole entry): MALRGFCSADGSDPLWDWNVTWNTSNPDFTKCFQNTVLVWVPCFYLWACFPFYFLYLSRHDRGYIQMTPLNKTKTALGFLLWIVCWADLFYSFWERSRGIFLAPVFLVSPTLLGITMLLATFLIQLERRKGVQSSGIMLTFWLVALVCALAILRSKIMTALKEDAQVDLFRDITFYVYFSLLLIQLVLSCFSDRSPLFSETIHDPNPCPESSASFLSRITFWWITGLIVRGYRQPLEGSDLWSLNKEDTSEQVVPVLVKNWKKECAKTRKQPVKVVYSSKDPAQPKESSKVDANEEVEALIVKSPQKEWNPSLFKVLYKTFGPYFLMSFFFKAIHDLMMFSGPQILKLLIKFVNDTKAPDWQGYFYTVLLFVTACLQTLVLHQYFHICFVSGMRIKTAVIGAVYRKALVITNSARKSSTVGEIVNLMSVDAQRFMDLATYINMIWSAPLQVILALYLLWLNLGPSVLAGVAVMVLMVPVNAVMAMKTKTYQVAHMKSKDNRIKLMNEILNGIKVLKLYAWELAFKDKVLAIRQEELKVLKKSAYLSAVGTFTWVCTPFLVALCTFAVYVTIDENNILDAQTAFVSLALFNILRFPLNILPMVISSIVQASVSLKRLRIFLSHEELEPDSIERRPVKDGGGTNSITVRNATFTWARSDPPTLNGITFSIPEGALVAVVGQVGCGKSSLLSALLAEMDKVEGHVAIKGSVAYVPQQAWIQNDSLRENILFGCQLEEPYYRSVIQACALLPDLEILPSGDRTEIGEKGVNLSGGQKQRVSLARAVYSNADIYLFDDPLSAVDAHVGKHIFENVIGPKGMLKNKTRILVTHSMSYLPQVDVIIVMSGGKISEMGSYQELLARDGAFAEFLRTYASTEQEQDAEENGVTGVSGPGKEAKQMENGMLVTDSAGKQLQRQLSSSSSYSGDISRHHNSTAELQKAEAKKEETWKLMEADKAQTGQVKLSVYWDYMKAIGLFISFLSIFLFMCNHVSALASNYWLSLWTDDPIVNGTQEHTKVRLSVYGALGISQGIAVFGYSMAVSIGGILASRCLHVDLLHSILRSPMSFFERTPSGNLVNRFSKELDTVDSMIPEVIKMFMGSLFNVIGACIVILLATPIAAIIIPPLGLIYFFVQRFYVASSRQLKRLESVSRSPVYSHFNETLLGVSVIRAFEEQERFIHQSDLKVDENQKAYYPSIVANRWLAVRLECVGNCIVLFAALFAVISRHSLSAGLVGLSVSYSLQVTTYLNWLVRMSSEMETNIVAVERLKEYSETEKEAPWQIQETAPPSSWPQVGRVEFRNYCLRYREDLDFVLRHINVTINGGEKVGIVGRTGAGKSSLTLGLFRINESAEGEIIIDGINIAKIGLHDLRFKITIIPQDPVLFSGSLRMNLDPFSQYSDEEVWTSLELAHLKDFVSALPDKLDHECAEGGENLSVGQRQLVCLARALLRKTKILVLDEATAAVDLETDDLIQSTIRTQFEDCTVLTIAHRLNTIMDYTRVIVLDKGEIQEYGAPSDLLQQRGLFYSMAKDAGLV

As for `CC1(C)CC[C@]2(NC(=O)C(F)(F)F)CC[C@]3(C)[C@H](C(=O)C=C4[C@@]5(C)C=C(C#N)C(=O)C(C)(C)[C@@H]5CC[C@]43C)[C@@H]2C1` [Compound 63171], the efflux ratio at MRP-1 worked out at 11.2. Besides, the IC50 is 1700 nM in series [1] (setting [9]), 1800 nM in series [1] (setting [10]), 2000 nM in series [2] (setting [11]) and 2100 nM in series [2] (setting [12]). In series [3], the “Fold increase in amount of compound needed compared to RTA 402 for the same activity” value (“Fold increase in amount” below) was 2.65 fold.

As for `CCNC(=O)[C@]12CCC(C)(C)C[C@H]1[C@H]1C(=O)C=C3[C@@]4(C)C=C(C#N)C(=O)C(C)(C)[C@@H]4CC[C@@]3(C)[C@]1(C)CC2` [RTA 405, reference compound], the concentration at 6 h amounted to 93 nM in [4] (brain, read-out: Drug content, Brain); 2360 nM in [4] (kidney, read-out: Drug content, Kidney); 1140 nM in [4] (liver, read-out: Drug content, Liver); 1630 nM in series [4] (lung, read-out: Drug content, Lung); 130 nM in series [4] (plasma, read-out: Drug content, Plasma); 1160 nM in series [4] (whole blood, read-out: Drug content, Whole Blood). The “NOx Levels (% vs LPS Controls)” value in series [5] (13 mg/kg oral gavage) stood at 44%; in series [5] (25 mg/kg oral gavage) it was 26%; in series [5] (50 mg/kg oral gavage), 18%. In addition, the “NQO1 activity induction, Kidney” value in the series with NQO1 activity turned out to be 8.25. The “NQO1 activity induction, Liver” value with NQO1 activity came to 1.93. Further, the “NQO1 activity induction, Lung” value with NQO1 activity came out at 1.48.

Consider `CC(=O)N[C@]12CCC(C)(C)C[C@H]1[C@H]1C(=O)C=C3[C@@]4(C)C=C(C#N)C(=O)C(C)(C)[C@@H]4CC[C@@]3(C)[C@]1(C)CC2` [Compound 63170], for which the efflux ratio on MRP-1 is 10. Moreover, the IC50 was 1100 nM in series [1] (setting [9]), 1100 nM in series [1] (setting [10]), 1000 nM in series [2] (setting [11]) and 1100 nM in [2] (setting [12]). The “Fold increase in amount” value in series [3] was determined as 3.40 fold. The “Concentration required to increase transcription from the NQO1 ARE by 2-fold” value in series [6] was 25.2 nM.

As for `CCC(=O)N[C@]12CCC(C)(C)C[C@H]1[C@H]1C(=O)C=C3[C@@]4(C)C=C(C#N)C(=O)C(C)(C)[C@@H]4CC[C@@]3(C)[C@]1(C)CC2` [Compound 63189], at MRP-1, the efflux ratio was found to be 57.1. Moreover, the IC50 in series [1] (setting [9]) worked out at 1100 nM; in [1] (setting [10]) it was 1000 nM; in series [2] (setting [11]), 1100 nM; in [2] (setting [12]), 1200 nM. Besides, the “Fold increase in amount” value in series [3] stood at 3.47 fold. For the same compound, in series [6], the “Concentration required to increase transcription from the NQO1 ARE by 2-fold” value is 14.9 nM.

Consider `CC1(C)CC[C@]2(NC(=O)CC(F)(F)F)CC[C@]3(C)[C@H](C(=O)C=C4[C@@]5(C)C=C(C#N)C(=O)C(C)(C)[C@@H]5CC[C@]43C)[C@@H]2C1` [Compound 63179], for which the efflux ratio on MRP-1 is 56.5. For the same compound, the IC50 amounted to 200 nM in [1] (setting [9]), 600 nM in [1] (setting [10]), 1400 nM in series [2] (setting [11]) and 1500 nM in series [2] (setting [12]). Also, in series [3], the “Fold increase in amount” value was found to be 6.05 fold. Further, the “Concentration required to increase transcription from the NQO1 ARE by 2-fold” value in series [6] was 29.1 nM.

Consider `CC1(C)CC[C@]2(CO)CC[C@]3(C)[C@H](C(=O)C=C4[C@@]5(C)C=C(C#N)C(=O)C(C)(C)[C@@H]5CC[C@]43C)[C@@H]2C1` [Compound 63355], for which the “NQO1-ARE (fold at 62.5 nM in HuH7)” value in series [6] (62.5 nM) was found to be 6.5 ± 0.9 fold.

As to `CC1(C)CC[C@]2(NC(=O)C(C)(F)F)CC[C@]3(C)[C@H](C(=O)C=C4[C@@]5(C)C=C(C#N)C(=O)C(C)(C)[C@@H]5CC[C@]43C)[C@@H]2C1` [desolvated class 4], the “DSC: no decomposition up to” value in series [7] is “no decomposition up to 270 °C”. Moreover, the “TG-FTIR: mass loss (solvent)” value in series [7] (first or main loss, solvent and temperature range per sample as printed) is given as “TG-FTIR: loss of ~0.9 wt.-%”. Also, the “TG-FTIR: decomposition at T” value in series [7] (listed as PP415-P37) is “decomposition at T > 280 °C”. For the same compound, the “DVS: hygroscopicity class” value in series [8] is given as “DVS: slightly hygroscopic; Δm = (mass increase <2% but ≧0.2%)”. The “DVS: total mass gain from 0% r.h. to 95% r.h.” value in [8] (0% r.h. to 95% r.h.) is listed as “mass gain of 2.1 wt.-% from 0%”. Besides, the “DVS: Δm (50%→85% r.h.)” value in series [8] (50%→85% r.h., listed as PP415-P37) is given as “+0.7% (50%→85% r.h.); total”. In addition, the “post-DVS Raman and/or PXRD: solid form” value in series [8] (after DVS, listed as PP415-P37) is listed as “to class 4”. For the same compound, the “Hygroscopicity classification (DVS)” value in [8] (mass gain at 85% r.h.) is “slightly hygroscopic (mass increase <2% but ≧0.2%)”.

As usually defined, the efflux ratio is the permeability from basolateral to apical divided by that in the opposite direction, in the common usage.
